Data from patent US20100098654A1.

Tests used:
[1] = system: human neuroblastoma cells NXS2; assay: NXS2 xenografted mice, survival; assay type: in vivo; conditions: NXS2 in A/J mice
Description: Xenograft tumors were established in immunocompetent A/J mice by injecting […] neuroblastoma cells, NXS2, in the adrenal gland.
The immunocompetent mice were injected with another […] NB cell, NXS2 of 5×10^4 cells or 5×10^5 cells in the left adrenal gland. Tumors were allowed to grow for 2 days and reached the average volume of approximately 200 mm^3. […] Control group received HEPES-buffered saline. Survival time was used as the criteria for determining treatment efficacy.

[2] = system: human neuroblastoma cells (GI-LI-N); assay: Orthotopic human neuroblastoma (GI-LI-N) xenografted mice; assay type: in vivo, mouse (human tumor xenograft)
Description: Xenograft tumors were established in mice by injecting human neuroblastoma cells (GI-LI-N) in the adrenal gland.
Five-week-old female athymic nude (nu/nu) mice were randomly assigned to each test group (8 mice per group). Eight mice/group were anaesthetised and injected with the human NB cell line, GI-LI-N (1×10^6 cells in 15 μl of HEPES buffer), after laparatomy, in the capsule of the left adrenal gland. Mice were monitored at least two times weekly for evidence of tumor development, quantification of tumor size, and evidence of tumor-associated morbidity. […] Control group received HEPES-buffered saline. The body weight and general physical status of the animals was observed daily and any mouse was terminated when a tumor reached 1000-1200 mm^3. Survival time was used as the criteria for determining treatment efficacy.
Tumors were removed from orthotopic neuroblastoma-bearing mice at day 50. Tumor sections were immunostained for NB84 as a neuroblastoma cell marker, and Ki-67 as a tumor cell proliferation marker. Cell nuclei were stained with DAPI.
Control group received HEPES-buffered saline.

[3] = system: human neuroblastoma cells (HTLA-230); assay: Pseudometastatic human neuroblastoma (HTLA-230) xenografted mice, survival; assay type: in vivo; conditions: HTLA-230 i.v. in nude mice, 10 mg/kg q2d×5
Description: Xenografts were established in mice by injecting human neuroblastoma cells (HTLA-230) intravenously at zero time point.
Four-week-old female athymic nude (nu/nu) mice were purchased from Harlan Laboratories (Harlan Italy-S.Pietro al Natisone, UD). Eight mice/group were injected with the human NB cell line, HTLA-230 (3.5×10^6 cells in 200 μl of HEPES-buffered saline) in the tail vein (i.v.) on day 0. The mice were then randomly assigned to each test group (8 mice per group). […] Control group received HEPES-buffered saline. The mice were monitored routinely for weight loss. Survival times were used as the criteria for determining treatment efficacy.

[4] = GI-LI-N orthotopic (Example 27), 10 mg/kg q2d×5

CCc1c2c(nc3ccc(OC(=O)N4CCC(N5CCCCC5)CC4)cc13)-c1cc3c(c(=O)n1C2)COC(=O)[C@]3(O)CC [CPT-11]
mice surviving ([1]; 10 mg/kg/dose q2d×5): None | mice surviving ([1]; MTD (40 mg/kg) q2d×5): None | mice surviving [2, 4]: None | time by which animals died [2, 4]: ≤ 80 days | time by which animals died ([2]; GI-LI-N orthotopic (Example 30), 10 mg/kg/dose): ≤ 80 days | mice surviving ([2]; GI-LI-N orthotopic (Example 30), 10 mg/kg/dose day 21, 23, 25, 27, 29): None | effect on survival rate ([2]; GI-LI-N orthotopic (Example 30), at MTD (40 mg/kg)): slightly improved survival rate | mice surviving [3]: None | time by which animals died ([3]; from the cancer injection): ≤ 85 days
